Non-standard residues stand in square brackets, D forms with d. Residues, ends and D or L forms follow the SMILES beside them. Cha = N[C@@H](CC1CCCCC1)C(=O)O; Nle = CCCC[C@H](N)C(=O)O; Aib = CC(C)(N)C(=O)O
Molecular target: T1, PTH receptor present on SaOS-2 (human osteosarcoma cells) (Homo sapiens, UniProt Q03431)
T1 construct: host or cells: SaOS-2 human osteosarcoma cells (intact, confluent monolayers)
T1 sequence (Q03431 27-593): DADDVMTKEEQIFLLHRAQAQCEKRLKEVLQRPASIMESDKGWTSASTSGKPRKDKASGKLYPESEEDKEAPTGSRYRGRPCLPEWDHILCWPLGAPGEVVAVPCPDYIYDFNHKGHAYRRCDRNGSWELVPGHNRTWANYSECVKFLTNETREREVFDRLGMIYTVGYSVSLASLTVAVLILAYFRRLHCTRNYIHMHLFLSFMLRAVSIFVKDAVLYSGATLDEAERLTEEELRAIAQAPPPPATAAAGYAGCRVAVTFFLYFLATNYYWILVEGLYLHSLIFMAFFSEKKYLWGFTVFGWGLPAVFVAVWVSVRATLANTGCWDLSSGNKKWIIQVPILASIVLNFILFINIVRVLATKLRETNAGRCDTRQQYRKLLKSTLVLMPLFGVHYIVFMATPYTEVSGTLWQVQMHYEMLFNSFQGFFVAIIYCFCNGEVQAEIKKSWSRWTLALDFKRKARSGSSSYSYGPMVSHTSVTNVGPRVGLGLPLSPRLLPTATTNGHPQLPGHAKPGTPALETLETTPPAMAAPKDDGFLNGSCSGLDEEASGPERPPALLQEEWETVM
Assay: Binding to PTH receptor on SaOS-2 cells (competition with mono-125I-[Nle8,18,Tyr34(3-125I)]bPTH(1-34)NH2)
Conditions: Table I, 2 hrs at room temperature, read-out: Kd (half maximal inhibition of binding of mono-125I-[Nle8,18, Tyr34(3-125I)]bPTH(1-34)NH2)
How it was run: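 Confluent SaOS-2 cells in 5% FBS RPMI were incubated 2 h at room temperature with 10×10^4 cpm mono-125I-[Nle8,18,Tyr34(3-125I)]bPTH(1-34)NH2 plus competing peptide at 10^−11 to 10^−4 M. After washing, cell-bound radioactivity was counted; Kd taken as half-maximal inhibition of tracer binding.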

Kd [nM]	SMILES
500	CC[C@H](C)[C@H](NC(=O)[C@H](CCC(=O)O)NC(=O)[C@H](CO)NC(=O)[C@@H](NC(=O)[C@@H](N)CO)C(C)C)C(=O)N[C@@H](CCC(N)=O)C(=O)N[C@@H](CC(C)C)C(=O)N[C@@H](CCSC)C(=O)N[C@@H](Cc1c[nH]cn1)C(=O)N[C@@H](CC(N)=O)C(=O)N[C@@H](CC(C)C)C(=O)NCC(=O)N[C@@H](CCCCN)C(=O)N[C@@H](Cc1c[nH]cn1)C(=O)N[C@@H](CC(C)C)C(=O)N[C@@H](CC(N)=O)C(=O)N[C@@H](CO)C(=O)N[C@@H](CCSC)C(=O)N[C@@H](CCC(=O)O)C(=O)N[C@@H](CCCNC(=N)N)C(=O)N[C@H](C(=O)N[C@@H](CCC(=O)O)C(=O)N[C@@H](Cc1c[nH]c2ccccc12)C(=O)N[C@@H](CC1CCCCC1)C(=O)N[C@@H](CCCNC(=N)N)C(=O)N[C@@H](CCCCN)C(=O)N[C@@H](CCCCN)C(=O)N[C@@H](CC1CCCCC1)C(=O)N[C@@H](CCC(N)=O)C(=O)N[C@@H](CCCCN)C(=O)N[C@@H](CC1CCCCC1)C(=O)N[C@@H](Cc1c[nH]cn1)C(=O)N[C@@H](CC(N)=O)C(=O)N[C@@H](Cc1ccccc1)C(N)=O)C(C)C [[Cha^24,28,31, Lys^30]hPTH(1-34)NH2] (H-SVSEIQLMHNLGKHLNSMERVEW[Cha]RKK[Cha]QK[Cha]HNF-NH2)
50	CCCC[C@H](NC(=O)[C@H](CO)NC(=O)[C@H](CC(N)=O)NC(=O)[C@H](CC(C)C)NC(=O)[C@H](Cc1c[nH]cn1)NC(=O)[C@H](CCCCN)NC(=O)CNC(=O)[C@H](CC(C)C)NC(=O)[C@H](CC(N)=O)NC(=O)[C@H](Cc1c[nH]cn1)NC(=O)[C@H](CCCC)NC(=O)[C@H](CC(C)C)NC(=O)[C@H](CCC(N)=O)NC(=O)[C@@H](NC(=O)[C@H](CCC(=O)O)NC(=O)[C@H](CO)NC(=O)[C@@H](NC(=O)[C@@H](N)CO)C(C)C)[C@@H](C)CC)C(=O)N[C@@H](CCC(=O)O)C(=O)N[C@@H](CCCNC(=N)N)C(=O)N[C@H](C(=O)N[C@@H](CCC(=O)O)C(=O)N[C@@H](Cc1c[nH]c2ccccc12)C(=O)N[C@@H](CC(C)C)C(=O)N[C@@H](CCCNC(=N)N)C(=O)N[C@@H](CCCCN)C(=O)N[C@@H](CC1CCCCC1)C(=O)N[C@@H](CC(C)C)C(=O)N[C@@H](CCC(N)=O)C(=O)N[C@@H](CC(=O)O)C(=O)N[C@H](C(=O)N[C@@H](Cc1c[nH]cn1)C(=O)N[C@@H](CC(N)=O)C(=O)N[C@@H](Cc1ccccc1)C(N)=O)C(C)C)C(C)C [[Nle^8,18, Cha^27]hPTH(1-34)NH2] (H-SVSEIQL[Nle]HNLGKHLNS[Nle]ERVEWLRK[Cha]LQDVHNF-NH2)
4	CCCC[C@H](NC(=O)[C@H](CC(=O)O)NC(=O)[C@H](CCC(N)=O)NC(=O)[C@H](CC(C)C)NC(=O)[C@H](CCCCN)NC(=O)[C@H](CCCCN)NC(=O)[C@H](CCCNC(=N)N)NC(=O)[C@H](CC(C)C)NC(=O)[C@H](Cc1c[nH]c2ccccc12)NC(=O)[C@H](CCC(=O)O)NC(=O)[C@@H](NC(=O)[C@H](CCCNC(=N)N)NC(=O)[C@H](CCC(=O)O)NC(=O)[C@H](CCSC)NC(=O)[C@H](CO)NC(=O)[C@H](CC(N)=O)NC(=O)[C@H](CC(C)C)NC(=O)[C@H](Cc1c[nH]cn1)NC(=O)[C@H](CCCCN)NC(=O)CNC(=O)[C@H](CC(C)C)NC(=O)[C@H](CC(N)=O)NC(=O)[C@H](Cc1c[nH]cn1)NC(=O)[C@H](CCSC)NC(=O)[C@H](CC(C)C)NC(=O)[C@H](CCC(N)=O)NC(=O)[C@@H](NC(=O)[C@H](CCC(=O)O)NC(=O)[C@H](CO)NC(=O)[C@@H](NC(=O)[C@@H](N)CO)C(C)C)[C@@H](C)CC)C(C)C)C(=O)N[C@@H](Cc1c[nH]cn1)C(=O)N[C@@H](CC(N)=O)C(=O)N[C@@H](Cc1ccccc1)C(N)=O [[Nle^31]hPTH(1-34)NH2] (H-SVSEIQLMHNLGKHLNSMERVEWLRKKLQD[Nle]HNF-NH2)
7	CC[C@H](C)[C@H](NC(=O)[C@H](CCC(=O)O)NC(=O)[C@H](CO)NC(=O)[C@@H](NC(=O)[C@@H](N)CO)C(C)C)C(=O)N[C@@H](CCC(N)=O)C(=O)N[C@@H](CC(C)C)C(=O)N[C@@H](CCSC)C(=O)N[C@@H](Cc1c[nH]cn1)C(=O)N[C@@H](CC(N)=O)C(=O)N[C@@H](CC(C)C)C(=O)NCC(=O)N[C@@H](CCCCN)C(=O)N[C@@H](Cc1c[nH]cn1)C(=O)N[C@@H](CC(C)C)C(=O)N[C@@H](CC(N)=O)C(=O)N[C@@H](CO)C(=O)N[C@@H](CCSC)C(=O)N[C@@H](CCC(=O)O)C(=O)N[C@@H](CCCNC(=N)N)C(=O)N[C@H](C(=O)N[C@@H](CCC(=O)O)C(=O)N[C@@H](Cc1c[nH]c2ccccc12)C(=O)N[C@@H](CC(C)C)C(=O)N[C@@H](CCCNC(=N)N)C(=O)N[C@@H](CCCCN)C(=O)N[C@@H](CCCCN)C(=O)N[C@@H](CC(C)C)C(=O)N[C@@H](CCC(N)=O)C(=O)N[C@@H](CC(=O)O)C(=O)N[C@H](C(=O)N[C@@H](Cc1c[nH]cn1)C(=O)N[C@@H](CC(N)=O)C(=O)NC(C)(C)C(N)=O)C(C)C)C(C)C [[Aib^34]hPTH(1-34)NH2]
5	CC[C@H](C)[C@H](NC(=O)[C@H](CCC(=O)O)NC(=O)[C@H](CO)NC(=O)[C@@H](NC(=O)[C@@H](N)CO)C(C)C)C(=O)N[C@@H](CCC(N)=O)C(=O)N[C@@H](CC(C)C)C(=O)N[C@@H](CCSC)C(=O)N[C@@H](Cc1c[nH]cn1)C(=O)N[C@@H](CC(N)=O)C(=O)N[C@@H](CC(C)C)C(=O)NCC(=O)N[C@@H](CCCCN)C(=O)N[C@@H](Cc1c[nH]cn1)C(=O)N[C@@H](CC1CCCCC1)C(=O)N[C@@H](CC(N)=O)C(=O)N[C@@H](CO)C(=O)N[C@@H](CCSC)C(=O)N[C@@H](CCC(=O)O)C(=O)N[C@@H](CCCNC(=N)N)C(=O)N[C@H](C(=O)N[C@@H](CCC(=O)O)C(=O)N[C@@H](Cc1c[nH]c2ccccc12)C(=O)N[C@@H](CC(C)C)C(=O)N[C@@H](CCCNC(=N)N)C(=O)N[C@@H](CCCCN)C(=O)N[C@@H](CCCCN)C(=O)N[C@@H](CC(C)C)C(=O)N[C@@H](CCC(N)=O)C(=O)N[C@@H](CC(=O)O)C(=O)N[C@H](C(=O)N[C@@H](Cc1c[nH]cn1)C(=O)N[C@@H](CC(N)=O)C(=O)N[C@@H](Cc1ccccc1)C(N)=O)C(C)C)C(C)C [[Cha^15]hPTH(1-34)NH2] (H-SVSEIQLMHNLGKH[Cha]NSMERVEWLRKKLQDVHNF-NH2)
1000	CC[C@H](C)[C@H](NC(=O)[C@H](CCC(=O)O)NC(=O)[C@H](CO)NC(=O)[C@@H](NC(=O)[C@@H](N)CO)C(C)C)C(=O)N[C@@H](CCC(N)=O)C(=O)N[C@@H](CC(C)C)C(=O)N[C@@H](CCSC)C(=O)N[C@@H](Cc1c[nH]cn1)C(=O)N[C@@H](CC(N)=O)C(=O)N[C@@H](CC(C)C)C(=O)NCC(=O)N[C@@H](CCCCN)C(=O)N[C@@H](Cc1c[nH]cn1)C(=O)N[C@@H](CC(C)C)C(=O)N[C@@H](CC(N)=O)C(=O)N[C@@H](CO)C(=O)N[C@@H](CCSC)C(=O)N[C@@H](CCC(=O)O)C(=O)N[C@@H](CCCNC(=N)N)C(=O)N[C@H](C(=O)N[C@@H](CCC(=O)O)C(=O)N[C@@H](Cc1c[nH]c2ccccc12)C(=O)N[C@@H](CC1CCCCC1)C(=O)N[C@@H](CCCNC(=N)N)C(=O)N[C@@H](CCCCN)C(=O)N[C@@H](CCCCN)C(=O)N[C@@H](CC1CCCCC1)C(=O)N[C@@H](CCC(N)=O)C(=O)N[C@@H](CC(=O)O)C(=O)N[C@@H](CC1CCCCC1)C(=O)N[C@@H](Cc1c[nH]cn1)C(=O)N[C@@H](CC(N)=O)C(=O)N[C@@H](Cc1ccccc1)C(N)=O)C(C)C [[Cha^24,28,31]hPTH(1-34)NH2] (H-SVSEIQLMHNLGKHLNSMERVEW[Cha]RKK[Cha]QD[Cha]HNF-NH2)
7	CC[C@H](C)[C@H](NC(=O)[C@H](CCC(=O)O)NC(=O)[C@H](CO)NC(=O)[C@@H](NC(=O)[C@@H](N)CO)C(C)C)C(=O)N[C@@H](CCC(N)=O)C(=O)N[C@@H](CC1CCCCC1)C(=O)N[C@@H](CCSC)C(=O)N[C@@H](Cc1c[nH]cn1)C(=O)N[C@@H](CC(N)=O)C(=O)N[C@@H](CC1CCCCC1)C(=O)NCC(=O)N[C@@H](CCCCN)C(=O)N[C@@H](Cc1c[nH]cn1)C(=O)N[C@@H](CC(C)C)C(=O)N[C@@H](CC(N)=O)C(=O)N[C@@H](CO)C(=O)N[C@@H](CCSC)C(=O)NC(C)(C)C(=O)N[C@@H](CCCNC(=N)N)C(=O)N[C@H](C(=O)N[C@@H](CCC(=O)O)C(=O)N[C@@H](Cc1c[nH]c2ccccc12)C(=O)N[C@@H](CC(C)C)C(=O)N[C@@H](CCCNC(=N)N)C(=O)N[C@@H](CCCCN)C(=O)N[C@@H](CCCCN)C(=O)N[C@@H](CC(C)C)C(=O)N[C@@H](CCC(N)=O)C(=O)N[C@@H](CC(=O)O)C(=O)N[C@H](C(=O)N[C@@H](Cc1c[nH]cn1)C(=O)N[C@@H](CC(N)=O)C(=O)N[C@@H](Cc1ccccc1)C(N)=O)C(C)C)C(C)C [[Cha^7,11, Aib^19]hPTH(1-34)NH2] (H-SVSEIQ[Cha]MHN[Cha]GKHLNSM[Aib]RVEWLRKKLQDVHNF-NH2)

From patent US7632811B2, “Analogs of parathyroid hormone” (Societe de Conseils de Recherches et D'Applications …, priority 1995, dated 2009)
